In patent publication US8637237B2, “Methods, compositions, and systems for the identification of species-specific or developmental stage-specific insecticides” (The University of North Carolina at Greensboro, priority 2003, dated 2014):

Columns and labels:
EcRB1/USP = molecular target: T1, EcRB1/USP (Drosophila melanogaster, UniProt P34021); test: EcRB1 isoform with USP (VP16CfUSP), (EcRE)5-ΔMTV-LUC in CHO cells; type: cell-based
T1 construct: The plasmid encodes a version of EcRB1 that includes 878 amino acids, and deletes the F domain; expressed in transfected cells; host or cells: CHO
T1 sequence (P34021 1-878): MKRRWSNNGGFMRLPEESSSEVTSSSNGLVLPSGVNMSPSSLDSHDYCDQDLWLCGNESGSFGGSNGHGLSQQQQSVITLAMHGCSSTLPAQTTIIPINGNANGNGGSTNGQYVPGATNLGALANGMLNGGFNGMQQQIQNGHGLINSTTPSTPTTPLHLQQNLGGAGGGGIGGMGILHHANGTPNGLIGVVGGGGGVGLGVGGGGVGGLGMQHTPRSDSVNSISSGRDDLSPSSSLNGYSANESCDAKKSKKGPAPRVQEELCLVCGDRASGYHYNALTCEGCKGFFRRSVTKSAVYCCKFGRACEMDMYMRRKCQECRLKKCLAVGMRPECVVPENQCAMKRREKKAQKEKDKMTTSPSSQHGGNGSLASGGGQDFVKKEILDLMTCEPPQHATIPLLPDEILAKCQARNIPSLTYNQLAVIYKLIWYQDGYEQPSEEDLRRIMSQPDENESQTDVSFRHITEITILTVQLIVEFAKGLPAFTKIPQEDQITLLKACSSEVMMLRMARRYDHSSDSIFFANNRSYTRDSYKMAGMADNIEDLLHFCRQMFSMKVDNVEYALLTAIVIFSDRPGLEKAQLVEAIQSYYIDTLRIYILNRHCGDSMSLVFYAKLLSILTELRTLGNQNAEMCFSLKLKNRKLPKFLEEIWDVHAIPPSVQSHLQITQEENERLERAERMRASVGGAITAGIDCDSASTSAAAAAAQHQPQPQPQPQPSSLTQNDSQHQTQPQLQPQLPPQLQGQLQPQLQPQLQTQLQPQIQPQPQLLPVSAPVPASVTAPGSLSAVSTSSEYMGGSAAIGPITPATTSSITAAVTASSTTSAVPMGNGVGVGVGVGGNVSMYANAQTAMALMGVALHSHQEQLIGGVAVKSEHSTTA
T1 sequence (O76202 192-472 partner): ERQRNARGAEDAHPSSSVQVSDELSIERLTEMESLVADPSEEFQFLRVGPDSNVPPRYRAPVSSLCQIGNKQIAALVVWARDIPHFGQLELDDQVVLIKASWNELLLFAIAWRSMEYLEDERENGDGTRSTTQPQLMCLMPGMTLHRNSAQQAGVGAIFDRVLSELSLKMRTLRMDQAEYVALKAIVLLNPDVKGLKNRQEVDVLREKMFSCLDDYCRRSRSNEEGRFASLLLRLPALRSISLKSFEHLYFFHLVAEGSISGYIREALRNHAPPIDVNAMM
Experimental: (§1) These experiments employed a mammalian cell culture system using Chinese hamster ovary cells (CHO) to evaluate the transcriptional function of Drosophila melanogaster EcR and USP using methods described previously (U.S. Patent Application Publication No: 2005/0049230; Henrich et al, 2003). Cells were seeded in 6-well polypropylene culture plates (Falcon) with 10^5 cells per well on the day prior to transfection. Transfection was subsequently performed using either calcium phosphate (Kitareewan et al., 1996, Mol. Biol. Cell, 7:1153-1196) or a GenePorter reagent (Gene Therapy Systems, Inc; San Diego, Calif.) following manufacturer's protocols. Each well received 1.25 μg of (EcRE)5-ΔMTV-CAT (five copies of the hsp27 EcRE inserted into an mouse mammary tumor virus (MTV) promoter upstream of the chloramphenicol acetyltransferase (CAT) gene) or (EcRE)5-ΔMTV-LUC (the same promoter attached to firefly luciferase), 1.25 μg of pCH111 (SV40 early promoter linked to the β-galactosidase gene) to normalize CAT activity, and 0.25 μg of each expression plasmid (EcR, FXR, RXR, USP) that was tested. The cells were incubated with plasmid DNA for seven hours and then washed with 1×PBS. Muristerone A (murA; Alexis Biochemicals) or 20-hydroxyecdysone (20E; Sigma) dissolved in ethanol to a concentration of 10 mM was diluted as necessary to the final assay concentration (FAC) in 2 ml of fresh incubation medium that was then applied to the cells. Similarly, JHIII (Sigma) was dissolved in dimethyl sulfoxide (DMSO) to a concentration of […] and diluted into the incubation medium to its final assay concentration (20, 40, 80, 160 μM). […] A corresponding volume of ethanol and DMSO were added to control cells for all experiments. For all experiments, the cells were allowed to incubate with the medium for 24 hours before collection and cell lysates were prepared by described methods (Kitareewan et al., 1996). Both β-galactosidase and CAT reporter activity were measured based on previously used methods (Kitareewan et al, 1996). Luciferase assays using luciferrin followed the specifications of the manufacturer.
(§2) Transcriptional activity, measured as ^14C-chloramphenicol counts (for measuring CAT activity) or relative luciferase activity (RLU) was quantified for each cell lysate. The counts were then normalized by adjusting for differences in β-galactosidase activity, since β-galactosidase expression is controlled by a constitutive promoter and provides an estimate of cell mass. Data were normalized as fold-induction based on differences in reporter gene activity between hormonally treated and control cells.

EcRB2/USP = molecular target: T2, EcRB2/USP (Drosophila melanogaster, UniProt P34021); test: EcRB2 isoform with USP (VP16CfUSP), (EcRE)5-ΔMTV-LUC in CHO cells; type: cell-based
T2 construct: The plasmid encodes a version of EcRB2 that includes 669 amino acids, and deletes the F domain; expressed in transfected cells; host or cells: CHO
T2 sequence (P34021 1-669 isoform P34021-3): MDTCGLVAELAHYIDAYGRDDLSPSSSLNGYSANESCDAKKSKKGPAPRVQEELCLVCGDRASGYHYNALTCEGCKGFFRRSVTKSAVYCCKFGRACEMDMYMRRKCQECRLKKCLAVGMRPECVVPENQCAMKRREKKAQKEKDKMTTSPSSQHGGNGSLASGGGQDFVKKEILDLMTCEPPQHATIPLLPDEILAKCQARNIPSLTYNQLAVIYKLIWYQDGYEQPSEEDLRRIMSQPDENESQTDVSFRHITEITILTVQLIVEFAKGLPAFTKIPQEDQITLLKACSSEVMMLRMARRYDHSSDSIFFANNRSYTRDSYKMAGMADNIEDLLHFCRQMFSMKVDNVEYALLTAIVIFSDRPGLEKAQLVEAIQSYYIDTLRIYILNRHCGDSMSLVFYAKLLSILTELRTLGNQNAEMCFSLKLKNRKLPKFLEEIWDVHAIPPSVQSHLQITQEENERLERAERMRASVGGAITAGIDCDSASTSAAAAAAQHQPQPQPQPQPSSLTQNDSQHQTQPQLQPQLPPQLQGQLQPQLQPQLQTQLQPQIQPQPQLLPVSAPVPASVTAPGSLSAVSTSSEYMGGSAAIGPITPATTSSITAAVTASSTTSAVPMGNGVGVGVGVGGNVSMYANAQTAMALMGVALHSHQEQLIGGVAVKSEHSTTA
T2 sequence (O76202 192-472 partner): T1 sequence (O76202 192-472 partner)
Experimental: as §1, §2

## CC(C)(O)CC[C@@H](O)[C@](C)(O)[C@H]1CC[C@@]2(O)C3=CC(=O)[C@@H]4C[C@@H](O)[C@@H](O)C[C@]4(C)[C@H]3CC[C@]12C [20E, 20-hydroxyecdysone]
EcRB1/USP; EcRB1 + VP16CfUSP, 10 μM 20E
  transcriptional response to 20E: consistent and discernible transcriptional response
EcRB1/USP; EcRB1/USP, 10 μM 20E
  20E (inducibility): + ((+) designates a change in transcriptional level that exceeds 2.5-fold)
EcRB2/USP; EcRB2 + VP16CfUSP, 10 μM 20E
  transcriptional response to 20E: consistent and discernible transcriptional response
EcRB2/USP; EcRB2/USP, 10 μM 20E
  20E (inducibility): + ((+) designates a change in transcriptional level that exceeds 2.5-fold)

## COC(=O)/C=C(\C)CC/C=C(\C)CC[C@H]1OC1(C)C [JHIII, juvenile hormone III]
EcRB1/USP; EcRB1 + VP16CfUSP, 80 μM JHIII with 0.1 μM murA
  potentiation of murA response by JHIII: potentiated
EcRB1/USP; EcRB1/USP, 0.1 μM murA + 80 μM JHIII
  MurA + JHIII (JHIII potentiation): + ((+) indicates observed potentiation that exceeds 2-fold above the levels observed with ecdysteroid alone)
EcRB2/USP; EcRB2 + VP16CfUSP, 10 μM 20E plus JHIII
  potentiation of 20E response by JHIII: potentiated significantly
EcRB2/USP; EcRB2 + VP16CfUSP, 80 μM JHIII with 0.1 μM murA
  potentiation of murA response by JHIII: potentiated
EcRB2/USP; EcRB2/USP, 0.1 μM murA + 80 μM JHIII
  MurA + JHIII (JHIII potentiation): + ((+) indicates observed potentiation that exceeds 2-fold above the levels observed with ecdysteroid alone)
EcRB2/USP; EcRB2/USP, 10 μM 20E + 80 μM JHIII
  20E + JHIII (JHIII potentiation): + ((+) indicates observed potentiation that exceeds 2-fold above the levels observed with ecdysteroid alone)

## CC(C)CC[C@@H](O)[C@](C)(O)[C@H]1CC[C@@]2(O)C3=CC(=O)[C@]4(O)C[C@@H](O)[C@@H](O)C[C@]4(C)[C@H]3[C@H](O)C[C@]12C [murA, muristerone A]
EcRB1/USP; EcRB1 + VP16CfUSP, 1 μM murA
  induction by murA: 30-40 fold
EcRB1/USP; EcRB1/USP, 0.1 μM murA
  MurA (inducibility): + ((+) designates a change in transcriptional level that exceeds 2.5-fold)
EcRB2/USP; EcRB2 + VP16CfUSP, 1 μM murA
  induction by murA: 30-40 fold
EcRB2/USP; EcRB2/USP, 0.1 μM murA
  MurA (inducibility): + ((+) designates a change in transcriptional level that exceeds 2.5-fold)
